# Measurements taken from patent US20210255168A1, “A METHOD OF PRECISION CANCER THERAPY” (KING FAISAL SPECIALIST HOSPITAL & RESEARCH CENTRE, priority 2018, published 2021).
# Assays:
# Type in all cases: cell-based
# [1] = tested on: TNF-α-ARE luciferase reporter in MDA-MB-231 cells; experiment: Post-transcriptional ARE luciferase reporter assay (kinase inhibitor library screen); conditions: 0.5, 2 and 5 μM, ARE and non-ARE reporters
# [2] = tested on: ARE-containing mRNAs (uPA, IL-8, SLC2A1, uPAR, CXCR4, MMP13, PDL1, HuR) in MDA-MB-231 cells; experiment: RT-qPCR of ARE-containing cancer gene mRNAs; conditions: MDA-MB-231, 330 nM, 24 hr, vs DMSO
# Protocol: Examples of the effect of several protein kinase inhibitors that were the outcome of the screen assay on one cancer gene, uPA, and a pro-inflammatory cytokine, IL-8 is given in FIG. 3.
# These include IL-8, solute carrier family 2 member 1 (SLC2A1), uPA, uPAR, CXCR4, MMP13, PDL1, and HuR. The MDA-MB-231 cells were treated with 330 nM volasertib or DMSO for 24 hr, then quantitative RT-qPCR was performed in using FAM-labelled TaqMan probe of the above genes and normalized to GADPH (FIG. 11).
# Cells were cultured in six-well plates and either treated with DMSO or drugs for 24 h. Total RNA was then extracted using Trizol reagent (TRI Reagent, Sigma-Aldrich, St Louis, Mo.). The cells were lysed directly on the culture dish by adding 1 ml of the TRI Reagent per 10 cm^2 surface area. […] The quantitative RT-QPCR was performed in multiplex in the Chroma 4 DNA Engine cycler (BioRad, Hercules, Calif., USA) using FAM-labelled TaqMan probes (Applied Biosystems, Foster City, Calif., USA) for TTP (ZFP36), HuR (ELAVL1), uPA (PLAU)-CXCR4, MMP-1, MMP-13, IL-8, PLK-1 while a VIC-labelled glyceraldehyde-3-phosphate dehydrogenase (GAPDH) probe was used as the endogenous control. Samples were amplified in triplicate and quantification of relative expression was performed using the estimation of quantitation cycle (Cq) method.
# [3] = tested on: TNF-α-ARE luciferase reporter in MDA-MB-231 cells; experiment: Post-transcriptional ARE luciferase reporter assay (kinase inhibitor library screen)
# Excerpt: Reporters were designed to be driven by the ribosomal protein subunit 30 (RPS30) promoter. The promoter was amplified using PCR with primers specific to the flanking region of the RPS30 promoter sequence. The gene structure of RPS30 was obtained from the Ribosomal Protein Database (http://ribosome.med.miyazaki-u.ac.jp). The forward and reverse primers included the restriction sites, EcoR V and SalI sites. Amplified DNA fragments were then resolved in 1.2%-1.5% agarose gel and the amplicon bands were excised, purified and cloned into the promoterless plasmid. TNF-α 3′-UTR and TNF-α ARE were used to study the role of AU-rich elements in the action of PKs inhibitors. The AU-rich sequence that comprised 250 bases from TNF-α 3′UTR (1200-1450 bp, NM_00059) was amplified by PCR using the forward primer 5′-[…]-3′ (SEQ ID NO:1) and the reverse primer 5′-[…]-3′ (SEQ ID NO:2). The TNF-α-ARE sequence was made by annealing two synthetic complementary oligonucleotides of 70 bases that correspond to TNF-α ARE. The control reporter was constructed to have the basic structure of post-transcriptional reporter except 3′UTR which lack the AU-rich element sequence like this of bovine growth hormone. Any ARE reiterations or variations can be used, with minimal sequence is AUUUA, preferably, WW(AUUUA)WW, where W=A or U. They can be also repeated as an overall, e.g., AUUUAUUA, anywhere from 0 to 10 repeats as example.
# Selleckchem Kinase Inhibitor Library that includes a selection of 378 pharmacologically active inhibitors of a number of protein kinases was purchased from Selleckchem. (Houston, Tex., USA). This library is a collection of 378 kinase inhibitors some of which have been approved by the FDA. Each compound is provided as a pre-dissolved 10 mM dimethyl sulfoxide (DMSO) solution as a 96 well format tube (100 μL). The compounds were diluted by OPTI-MEM (Thermo Fisher Scientific, Waltham, Mass., USA) to a final concentration of 5 μM.
# Post-transcriptional and control reporter constructs were transfected to MDA-MB-231 cells separately that were seeded in 96-well microplates at a density of 4×10^4 cells/well and incubated overnight. Using lipofectamine 2000 protocol (Invitrogen, Carlsbad, Calif., USA), the cells were transfected with 10 ng of either RPS30-luciferase-control 3′UTR or RPS30-luciferase-ARE 3′UTR reporter plasmids. After 24 h, the cells were treated with each member of protein kinase inhibitors kit for 24 h. Then, luciferase reaction was performed as prescribed by manufacture's protocol (Nano-Glo Luciferase, Promega, Madison, Wis., USA)/well. After 15 minutes, the reporters' activities were measured through the measurement of the chemiluminescence (FIG. 8) after treatment using a Zenith 3100 (Anthos Labtec, Eugendorf, Austria).
# Data are presented as means±standard error of the mean (SEM). Two-sample Student's t-test was used to determine the differences between two data sets. One-way analysis of variance (ANOVA) was used to compare three or more data columns. Two-way analysis of variance was used to analyze two groups of data, each having two data columns. Analysis was performed using GraphPad Prism version 6.00 for Windows, (GraphPad Software, La Jolla Calif., USA). For high throughput screening (HTS) hit selection (protein kinase inhibitors), strictly standardized mean difference (SSMD) test was used. This statistical test measures the size of effect of each member in a group relative to the other members. It is the mean of each member divided by the standard deviation of the difference between two random values from different groups. Based on the value of SSMD, the effect of each member of the library was classified as strong (β≥5), moderate (1≤β<5), and weak (β<1). In this study, only drug with SSMD score more than or equal to 5 or less than or equal to −5, i.e. strong β, where selected in the primary screening. […]
smiles,measurement,setting,value
CC[C@@H]1C(=O)N(C)c2cnc(Nc3ccc(C(=O)N[C@H]4CC[C@H](N5CCN(CC6CC6)CC5)CC4)cc3OC)nc2N1C(C)C [volasertib],ARE-dependent mRNA regulation confirmed in later stages of screening compared to a non-ARE reporter,[1],confirmed to be involved in ARE-dependent mRNA regulation
same,"expression of all ARE-containing cancer genes (IL-8, SLC2A1, uPA, uPAR, CXCR4, MMP13, PDL1, HuR)",[2],significantly reduced
same,reduction of TNF-ARE luciferase reporter activity,"[3]; primary screening, 5 μM",40%
same,reduction in percent reporter activity in the secondary screening compared to the control reporter,"[3]; secondary screening, ARE vs non-ARE control reporter",same reduction in percent reporter activity
